Test results taken from patent publication US10786465B2, “Polymer/copolymer nanoparticles conjugated to gambogic acid” (The Texas A&M University System, priority 2015, dated 2020).

What was measured:
TfR = TfR (Homo sapiens, UniProt P02786); assay: Sandwich ELISA, binding of fluorescent PLGA-GA/PLGA NS to TfR; conditions: 200 ng of TfR
Protocol: GA has been previously shown to have affinity for TfR, independent of transferrin binding. To evaluate the translation of the avidity of GA for TfR in PLGA-GA NS, a sandwich ELISA method was employed. The initial study involved the determination of the effect of surface GA density of NS in their binding affinity to TfR. […] The total […] of the NS suspension available in the wells without TfR was also measured in order to ensure that the variation in the FI with TfR was caused by the binding of the NS to the receptor.

Caco-2 cells = assay: Concentration dependent toxicity in Caco-2 cells; format: cell-based; conditions: human
Protocol: Cell death observed in the latter case could be attributed to the cumulative effect of high concentration of polymer and available GA. However, a moderate treatment of 250 μg NS appears to be safe for the cells. The amount of GA present in all the NS in […] was much lower than the established safe dose of 60 mg/kg described in literature.

[1] = described in literature; cited from earlier work

TfR, sequence (P02786 whole entry, species assumed): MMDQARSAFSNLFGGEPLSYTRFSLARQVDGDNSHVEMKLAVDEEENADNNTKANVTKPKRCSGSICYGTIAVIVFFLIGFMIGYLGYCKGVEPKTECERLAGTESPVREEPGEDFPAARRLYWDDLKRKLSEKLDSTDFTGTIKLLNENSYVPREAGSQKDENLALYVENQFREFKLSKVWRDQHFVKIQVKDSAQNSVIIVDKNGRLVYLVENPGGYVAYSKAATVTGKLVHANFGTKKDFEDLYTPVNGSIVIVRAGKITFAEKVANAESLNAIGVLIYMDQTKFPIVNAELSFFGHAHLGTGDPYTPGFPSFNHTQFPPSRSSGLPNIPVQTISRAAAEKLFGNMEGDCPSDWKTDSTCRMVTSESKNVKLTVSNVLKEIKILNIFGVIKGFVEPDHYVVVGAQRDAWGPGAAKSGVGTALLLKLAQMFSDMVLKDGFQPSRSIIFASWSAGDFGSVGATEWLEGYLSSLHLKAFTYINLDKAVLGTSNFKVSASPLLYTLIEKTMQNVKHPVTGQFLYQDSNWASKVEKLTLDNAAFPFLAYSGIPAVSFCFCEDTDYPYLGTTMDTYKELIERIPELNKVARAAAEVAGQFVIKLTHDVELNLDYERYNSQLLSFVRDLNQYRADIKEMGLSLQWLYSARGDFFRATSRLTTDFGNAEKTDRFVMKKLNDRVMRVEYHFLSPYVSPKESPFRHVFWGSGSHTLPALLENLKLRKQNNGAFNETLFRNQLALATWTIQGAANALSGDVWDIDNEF

Q: Which “competition with 2° antibody for TfR (colorimetric TfR levels)” value (TfR) does the source give for `CC(C)=CCC[C@]1(C)C=Cc2c(O)c3c(c(CC=C(C)C)c2O1)O[C@]12C(=C[C@@H]4C[C@H]1C(C)(C)O[C@@]2(C/C=C(/C)C(=O)O)C4=O)C3=O` [GA, gambogic acid] here?
A: does not compete with 2° antibody for TfR

Q: What about the cell death (Caco-2 cells; 20 μM) of the same molecule?
A: 25%

Q: And the cell death (Caco-2 cells; 30 μM)?
A: 46%

Q: What about the established safe dose [1] of the same molecule?
A: 60 mg/kg
